Patent publication US20230117034A1, “PYRAZOLOTRIAZINES” (Bayer Aktiengesellschaft, priority 2019, published 2023)

How the values were obtained:
Type in all cases: cell-based
[1] = system: MDA-MB-231, human breast cancer cells; experiment: Proliferation assay MDA-MB-231 (crystal violet, 4 days); details: Homo sapiens, MDA-MB-231, 96 h, MDA-MB-231 cells, median, read-out: Prolif-MDA MB-231, IC50-[mol/l] (median)
Summary of the method: (§1)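 Growth was measured by crystal violet staining after cells had been treated with compounds (0.01-10 µmol/L, 0.1% DMSO) for 4 days, beginning 24 h after seeding. Values were normalized to a zero-point plate and to untreated controls, and IC50 values were derived by a four-parameter fit.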

[2] = biological target: T1, CDK12 protein level in CAL-120 breast cancer cells (Homo sapiens, UniProt Q9NYV4); experiment: CDK12 protein level: Protein Simple (CDK12, CAL-120); details: CAL-120 cells, 18 h with compound, CDK12/HSP90 peak area ratio vs vehicle, median, read-out: CDK12 protein level in CAL-120 breast ca cells, DC50-[mol/l] (median)
T1 construct: endogenous in cells; host or cells: CAL-120 human breast cancer cells (DSMZ ACC 459)
Protocol: CAL-120 human breast cancer cells (DSMZ ACC 459) were seeded at 300,000 cells/well in 6-well plates containing 2 mL of growth medium (DMEM, 10% FCS, glutamine) and incubated for 24 h at 37° C. in an humidified incubator. Test compounds were added at various concentrations, control wells received solvent (DMSO), and the plates were incubated for another 18 h at 37° C. Cells were washed 2 times with PBS and lysed in 75 microL lysis buffer (MSD-Puffer (MSD, #R60TX-2), +1% 505S+PhosSTOP (Roche #04906837001)+complete mini (Roche #04693159001)) by scraping. The lysates were pushed 2 times through Qiashedders followed by centrifugation at 14,000 rpm for 30-50 sec. The supernatant was stored at −20° C. Proteins were separated by applying 0.4 microgramms of protein lysate to Protein Simple 66-440 kDa (Protein Simple #SM-S002) size assay columns on a PEGGY SUE or SALLY SUE equipment according to the supplier's manual. CDK12 and HSP90 (loading control) were detected using anti-human CDK12 antibody (Cell Signaling Technologies (CST) #11793) at 1:25 dilution and anti-human HSP90 antibody (CST #4877) at 1:5,000 dilution. CDK12 and HSP90 peak areas were determined using Protein Simple Compass software. Ratio of CDK12/HSP90 peak areas were calculated for each sample, and […] values (degrading concentration to achieve 50% reduction relative to vehicle treated control) were determined by means of a 4 parameter fit.

[3] = biological target: T2, CDK12 (nuclear staining in CAL-120 cells) (Homo sapiens, UniProt Q9NYV4); experiment: CDK12 nuclear protein level: immunofluorescence/high content analysis (CAL-120); details: for DC50: CAL-120 cells, 24 h, immunofluorescence, 50% reduction of nuclear CDK12 staining intensity, median, read-out: CDK12 degradation IF, DC50- [mol/l] (median); for (IC50 CDK12 high ATP) to (Degradation DC50 CDK12) ratio: ratio of IC50 CDK12 high ATP kinase assay to DC50 CDK12 degradation (IF, CAL-120)
T2 construct: endogenous in cells; host or cells: CAL-120 human breast cancer cells (DSMZ ACC 459)
Summary of the method: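 DC50 is the degrader concentration that halves nuclear CDK12 immunofluorescence relative to controls, measured by high-content imaging. CAL-120 cells were exposed to compound for 24 h at 37 °C before PFA fixation, and signal was normalized to DMSO and control wells.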

[4] = system: CAL-120, human breast adenocarcinoma cells; experiment: Proliferation assay CAL-120 (crystal violet, 4 days); details: Homo sapiens, CAL-120, 96 h, CAL-120 cells, median, read-out: Prolif-CAL-120, IC50-[mol/l] (median)
Summary of the method: as §1

T2 sequence (Q9NYV4 whole entry): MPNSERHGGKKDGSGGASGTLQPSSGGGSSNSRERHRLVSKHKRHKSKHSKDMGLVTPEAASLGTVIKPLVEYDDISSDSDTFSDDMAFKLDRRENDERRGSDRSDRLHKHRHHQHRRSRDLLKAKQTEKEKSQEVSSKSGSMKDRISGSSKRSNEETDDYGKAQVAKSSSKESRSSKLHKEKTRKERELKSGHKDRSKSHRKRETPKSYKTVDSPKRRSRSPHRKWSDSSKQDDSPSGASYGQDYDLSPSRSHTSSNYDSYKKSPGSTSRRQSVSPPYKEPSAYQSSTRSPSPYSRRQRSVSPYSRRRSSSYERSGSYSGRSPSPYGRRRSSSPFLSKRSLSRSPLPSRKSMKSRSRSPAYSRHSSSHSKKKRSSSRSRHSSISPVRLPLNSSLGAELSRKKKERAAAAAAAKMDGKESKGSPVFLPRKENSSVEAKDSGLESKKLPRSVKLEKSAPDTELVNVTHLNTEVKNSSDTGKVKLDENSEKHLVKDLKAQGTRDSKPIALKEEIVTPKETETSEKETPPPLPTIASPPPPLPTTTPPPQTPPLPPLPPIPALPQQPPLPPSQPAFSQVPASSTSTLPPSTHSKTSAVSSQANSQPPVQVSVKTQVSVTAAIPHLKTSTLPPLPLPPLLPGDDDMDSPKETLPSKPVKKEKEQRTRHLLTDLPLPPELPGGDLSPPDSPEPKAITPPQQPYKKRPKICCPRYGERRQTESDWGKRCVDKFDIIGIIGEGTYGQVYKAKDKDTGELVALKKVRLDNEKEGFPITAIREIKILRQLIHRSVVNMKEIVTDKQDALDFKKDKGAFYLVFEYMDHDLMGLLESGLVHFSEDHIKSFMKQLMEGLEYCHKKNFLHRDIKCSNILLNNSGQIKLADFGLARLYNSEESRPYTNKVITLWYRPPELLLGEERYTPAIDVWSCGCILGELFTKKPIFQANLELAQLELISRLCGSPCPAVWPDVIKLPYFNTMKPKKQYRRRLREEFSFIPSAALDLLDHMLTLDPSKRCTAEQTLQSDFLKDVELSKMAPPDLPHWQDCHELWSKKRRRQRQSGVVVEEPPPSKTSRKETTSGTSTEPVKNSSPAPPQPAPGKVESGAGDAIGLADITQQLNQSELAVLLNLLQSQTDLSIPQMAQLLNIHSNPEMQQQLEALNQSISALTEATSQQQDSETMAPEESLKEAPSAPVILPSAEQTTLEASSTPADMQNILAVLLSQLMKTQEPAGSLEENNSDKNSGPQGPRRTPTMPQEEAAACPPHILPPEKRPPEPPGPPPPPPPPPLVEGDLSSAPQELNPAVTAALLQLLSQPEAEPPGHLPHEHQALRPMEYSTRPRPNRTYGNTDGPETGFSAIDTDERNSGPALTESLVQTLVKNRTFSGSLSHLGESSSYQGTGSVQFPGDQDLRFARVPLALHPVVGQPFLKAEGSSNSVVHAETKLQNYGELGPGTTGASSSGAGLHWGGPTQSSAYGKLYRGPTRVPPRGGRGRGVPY
T2 sequence (O75909 whole entry partner): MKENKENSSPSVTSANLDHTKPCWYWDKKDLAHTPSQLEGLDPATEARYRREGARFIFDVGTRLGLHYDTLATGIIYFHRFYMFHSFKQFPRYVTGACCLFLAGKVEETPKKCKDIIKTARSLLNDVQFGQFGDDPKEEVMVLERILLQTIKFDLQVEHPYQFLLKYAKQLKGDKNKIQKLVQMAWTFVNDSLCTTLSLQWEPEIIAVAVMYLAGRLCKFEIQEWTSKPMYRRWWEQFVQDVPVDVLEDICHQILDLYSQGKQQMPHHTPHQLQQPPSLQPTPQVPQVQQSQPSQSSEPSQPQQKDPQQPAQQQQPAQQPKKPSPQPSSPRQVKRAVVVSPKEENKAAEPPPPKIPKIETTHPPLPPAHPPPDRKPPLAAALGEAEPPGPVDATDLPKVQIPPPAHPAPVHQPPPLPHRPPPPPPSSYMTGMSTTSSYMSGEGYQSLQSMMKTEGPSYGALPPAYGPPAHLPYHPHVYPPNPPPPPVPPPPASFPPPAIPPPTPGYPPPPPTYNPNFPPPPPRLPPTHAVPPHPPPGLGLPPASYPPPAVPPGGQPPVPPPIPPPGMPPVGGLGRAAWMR
T1 sequence (Q9NYV4 whole entry): as the sequence (Q9NYV4 whole entry) above
T1 sequence (O75909 whole entry partner): as the sequence (O75909 whole entry partner) above

IC50 [1]	DC50 [2]	DC50 [3]	(IC50 CDK12 high ATP) to (Degradation DC50 CDK12) ratio [3]	IC50 [4]	SMILES
186 nM	58.8 nM	50 nM	134		NCCc1cccc2[nH]c(CNc3nc(N4CCOCC4)nc4c(Br)cnn34)nc12 [Example 112, N-{[7-(2-aminoethyl)-1H-benzimidazol-2-yl]methyl}-8-bromo-2-(morpholin-4-yl)pyrazolo[1,5-a][1,3,5]triazin-4-amine]
25.3 nM	0.476 nM	1.07 nM	1628	12 nM	Brc1cnn2c(NCc3nc4ccccc4[nH]3)nc(N3CCOCC3)nc12 [Example 4, N-[(1H-benzimidazol-2-yl)methyl]-8-bromo-2-(morpholin-4-yl)pyrazolo[1,5-a][1,3,5]triazin-4-amine]
25.7 nM	1.08 nM	0.99 nM	>20194	4.13 nM	CN1CCN(c2nc(NCc3nc4cc(F)ccc4[nH]3)n3ncc(C4CC4)c3n2)CC1 [Example 164, 8-cyclopropyl-N-[(5-fluoro-1H-benzimidazol-2-yl)methyl]-2-(4-methylpiperazin-1-yl)pyrazolo[1,5-a][1,3,5]triazin-4-amine]
